Results: PubChem BioAssay (NCI)
“And” between values parts separate entries of the source, which are not always exact repeats. Equal values may be shown once.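 GI50 marks 50% less growth. TGI: total growth inhibition.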

Assays:
Assay in all cases: DTP human tumour cell line panel, 384-well format
CCRF-CEM leukemia = tested on: CCRF-CEM leukemia
M14 melanoma = tested on: M14 melanoma
NCI-H322M lung = tested on: NCI-H322M lung
HS 578T breast = tested on: HS 578T breast
MOLT-4 leukemia = tested on: MOLT-4 leukemia
786-0 renal = tested on: 786-0 renal
ACHN renal = tested on: ACHN renal
RXF 393 renal = tested on: RXF 393 renal
SF-539 CNS = tested on: SF-539 CNS
SR leukemia = tested on: SR leukemia
NCI-H460 NSCLC = tested on: NCI-H460 NSCLC
TK-10 renal = tested on: TK-10 renal
A549 NSCLC = tested on: A549 NSCLC
HCT-15 colon = tested on: HCT-15 colon
HT29 colon = tested on: HT29 colon
PC-3 prostate = tested on: PC-3 prostate
DU-145 prostate = tested on: DU-145 prostate
UO-31 renal = tested on: UO-31 renal
HCT-116 colon = tested on: HCT-116 colon
MCF7 breast = tested on: MCF7 breast
UACC-62 melanoma = tested on: UACC-62 melanoma
KM12 colon = tested on: KM12 colon
SNB-75 CNS = tested on: SNB-75 CNS
HCC-2998 colon = tested on: HCC-2998 colon
MDA-MB-231 breast = tested on: MDA-MB-231 breast
HOP-62 NSCLC = tested on: HOP-62 NSCLC
SK-OV-3 ovarian = tested on: SK-OV-3 ovarian
U251 glioblastoma = tested on: U251 glioblastoma
NCI/ADR-RES ovarian = tested on: NCI/ADR-RES ovarian
SF-295 CNS = tested on: SF-295 CNS
SNB-19 CNS = tested on: SNB-19 CNS
OVCAR-5 ovarian = tested on: OVCAR-5 ovarian
SF-268 CNS = tested on: SF-268 CNS
HL-60(TB) leukemia = tested on: HL-60(TB) leukemia
UACC-257 melanoma = tested on: UACC-257 melanoma
MDA-MB-468 breast = tested on: MDA-MB-468 breast
OVCAR-4 ovarian = tested on: OVCAR-4 ovarian
NCI-H226 lung = tested on: NCI-H226 lung
EKVX NSCLC = tested on: EKVX NSCLC
BT-549 breast = tested on: BT-549 breast
NCI-H522 lung = tested on: NCI-H522 lung
COLO 205 colon = tested on: COLO 205 colon
OVCAR-3 ovarian = tested on: OVCAR-3 ovarian
SW-620 colon = tested on: SW-620 colon
CAKI-1 renal = tested on: CAKI-1 renal
RPMI-8226 leukemia = tested on: RPMI-8226 leukemia
MDA-MB-435 melanoma = tested on: MDA-MB-435 melanoma
T-47D breast = tested on: T-47D breast
IGROV1 ovarian = tested on: IGROV1 ovarian
A498 renal = tested on: A498 renal
LOX IMVI melanoma = tested on: LOX IMVI melanoma
NCI-H23 lung = tested on: NCI-H23 lung
SK-MEL-28 melanoma = tested on: SK-MEL-28 melanoma
HOP-92 NSCLC = tested on: HOP-92 NSCLC
MALME-3M melanoma = tested on: MALME-3M melanoma
SN12C renal = tested on: SN12C renal
K-562 leukemia = tested on: K-562 leukemia
OVCAR-8 ovarian = tested on: OVCAR-8 ovarian
SK-MEL-2 melanoma = tested on: SK-MEL-2 melanoma
SK-MEL-5 melanoma = tested on: SK-MEL-5 melanoma

## Oc1cccc(-c2nc(N3CCOCC3)c3oc4ncccc4c3n2)c1
CCRF-CEM leukemia
  GI50: 202 nM
  TGI: 2730 nM
M14 melanoma
  GI50: 260 nM and 155 nM
NCI-H322M lung
  GI50: 229 nM and 106 nM
  TGI: 2030 nM and 642 nM
HS 578T breast
  GI50: 61.9 nM and 86.1 nM
  TGI: 288 nM and 617 nM
MOLT-4 leukemia
  GI50: 23 nM and 39.1 nM
  TGI: 230 nM and 195 nM
786-0 renal
  GI50: 297 nM
  TGI: 1480 nM
ACHN renal
  GI50: 70.7 nM and 77.9 nM
  TGI: 2440 nM and 563 nM
RXF 393 renal
  GI50: 95.7 nM and 207 nM
  TGI: 337 nM and 2860 nM
SF-539 CNS
  GI50: 114 nM and 143 nM
  TGI: 1590 nM and 11400 nM
SR leukemia
  GI50: 207 nM and 61.2 nM
  TGI: 890 nM and 205 nM
NCI-H460 NSCLC
  GI50: 155 nM and 44.1 nM
TK-10 renal
  GI50: 331 nM and 167 nM
  TGI: 1920 nM and 695 nM
A549 NSCLC
  GI50: 251 nM and 353 nM
  TGI: 1680 nM and 15400 nM
HCT-15 colon
  GI50: 128 nM and 104 nM
  TGI: > 100000 nM and 38500 nM
HT29 colon
  GI50: 3280 nM and 3420 nM
  TGI: > 100000 nM
PC-3 prostate
  GI50: 40.8 nM and 39.3 nM
  TGI: 1730 nM and 299 nM
DU-145 prostate
  GI50: 154 nM and 112 nM
UO-31 renal
  GI50: 60.9 nM
  TGI: 295 nM
HCT-116 colon
  GI50: 982 nM and 466 nM
  TGI: > 100000 nM
MCF7 breast
  GI50: 208 nM and 99 nM
  TGI: 23300 nM and 19500 nM
UACC-62 melanoma
  GI50: 305 nM and 400 nM
  TGI: 1460 nM and 2300 nM
KM12 colon
  GI50: 312 nM and 305 nM
  TGI: > 100000 nM
SNB-75 CNS
  GI50: 33.4 nM and 53.7 nM
HCC-2998 colon
  GI50: 147 nM and 367 nM
  TGI: 4250 nM and 8570 nM
MDA-MB-231 breast
  GI50: 289 nM and 500 nM
  TGI: 47600 nM and > 100000 nM
HOP-62 NSCLC
  GI50: 429 nM and 231 nM
  TGI: 3820 nM and 2810 nM
SK-OV-3 ovarian
  GI50: 81.1 nM and 120 nM
U251 glioblastoma
  GI50: 670 nM and 390 nM
  TGI: > 100000 nM and 19600 nM
NCI/ADR-RES ovarian
  GI50: 240 nM and 151 nM
  TGI: > 100000 nM and 18000 nM
SF-295 CNS
  GI50: 1290 nM and 2370 nM
  TGI: 4020 nM and 8530 nM
SNB-19 CNS
  GI50: 1260 nM and 1380 nM
  TGI: > 100000 nM and 24300 nM
OVCAR-5 ovarian
  GI50: 3540 nM and 2560 nM
SF-268 CNS
  GI50: 239 nM and 394 nM
  TGI: 10100 nM and 17900 nM
HL-60(TB) leukemia
  GI50: 62.2 nM and 20.5 nM
  TGI: 978 nM and 217 nM
UACC-257 melanoma
  GI50: 535 nM and 350 nM
  TGI: 5390 nM and 3810 nM
MDA-MB-468 breast
  GI50: 289 nM and 291 nM
  TGI: 1140 nM and 1240 nM
OVCAR-4 ovarian
  GI50: 350 nM and 87.4 nM
  TGI: 3690 nM and 613 nM
NCI-H226 lung
  GI50: 3470 nM and 2290 nM
  TGI: 22400 nM and 5680 nM
EKVX NSCLC
  GI50: 111 nM and 135 nM
  TGI: 468 nM and 504 nM
BT-549 breast
  GI50: 27.9 nM and 125 nM
  TGI: 347 nM and 493 nM
NCI-H522 lung
  GI50: 81.6 nM and 55.9 nM
  TGI: 524 nM and 501 nM
COLO 205 colon
  GI50: 4480 nM and 5550 nM
  TGI: 33600 nM and 27200 nM
OVCAR-3 ovarian
  GI50: 54 nM and 118 nM
  TGI: 398 nM and 408 nM
SW-620 colon
  GI50: 561 nM
  TGI: > 100000 nM
CAKI-1 renal
  GI50: 395 nM and 255 nM
  TGI: 5220 nM and 12300 nM
RPMI-8226 leukemia
  GI50: 116 nM and 44.9 nM
  TGI: 419 nM and 184 nM
MDA-MB-435 melanoma
  GI50: 161 nM and 162 nM
  TGI: 823 nM and 767 nM
T-47D breast
  GI50: 150 nM and 215 nM
IGROV1 ovarian
  GI50: 115 nM and 155 nM
  TGI: 393 nM and 380 nM
A498 renal
  GI50: 2050 nM and 598 nM
  TGI: 4690 nM and 2870 nM
LOX IMVI melanoma
  GI50: 318 nM and 207 nM
  TGI: 1570 nM and 1060 nM
NCI-H23 lung
  GI50: 306 nM and 324 nM
  TGI: 16100 nM and 17700 nM
SK-MEL-28 melanoma
  GI50: 96.3 nM and 123 nM
HOP-92 NSCLC
  GI50: 50.6 nM and 111 nM
MALME-3M melanoma
  GI50: 40.3 nM and 83.5 nM
SN12C renal
  GI50: 121 nM and 43.3 nM
K-562 leukemia
  GI50: 327 nM
  TGI: > 100000 nM
OVCAR-8 ovarian
  GI50: 197 nM
  TGI: > 100000 nM
SK-MEL-2 melanoma
  GI50: 808 nM
  TGI: 4720 nM
SK-MEL-5 melanoma
  GI50: 103 nM and 77.6 nM
  TGI: 498 nM and 279 nM
